In patent publication US4228292A, “N-Substituted benzothiazolines and benzoxazolines and their use as herbicides and plant growth regulants” (Monsanto Company, priority 1978, dated 1980):

Columns and labels:
Assay type in all cases: in vivo
Crabgrass [1] = assay: pre-emergent herbicidal test; settings: T
Procedure: (§1) The pre-emergent test was conducted as follows:
(§2) A good grade of top soil was placed in aluminum pans and compactd to a depth of 0.95 to 1.27 cm. from the top of the pan. On the top of the soil was placed a predetermined number of seeds or vegetative propagules of various plant species. The soil required to level fill the pans after seeding or adding vegetative propagules was weighed into a pan. A known amount of the herbicidal active ingredient applied in a solvent or as a wettable powder and the soil were thoroughly mixed, and used as a cover layer for prepared pans. After treatment the pans were moved into a greenhouse bench where they were watered from below as needed to give adequate moisture for germination and growth.
(§3) A herbicidal rating code was used to signify the extent of phytotoxicity of each species. The ratings are defined as follows: […]

Hemp Sesbania [2] = assay: pre-emergent herbicidal test; settings: R
Procedure: as §1, §2, §3

Panicum Spp [3] = assay: pre-emergent herbicidal test; settings: S
Procedure: as §1, §2, §3

Rice [4] = assay: pre-emergent herbicidal test; settings: O
Procedure: as §1, §2, §3

Sorghum [5] = assay: pre-emergent herbicidal test; settings: P
Procedure: as §1, §2, §3

Soybean [6] = assay: pre-emergent herbicidal test; settings: L
Procedure: as §1, §2, §3

Sugar Beet [7] = assay: pre-emergent herbicidal test; settings: M
Procedure: as §1, §2, §3

Wheat [8] = assay: pre-emergent herbicidal test; settings: N
Procedure: as §1, §2, §3

Wild Buckwheat [9] = assay: pre-emergent herbicidal test; settings: Q
Procedure: as §1, §2, §3

Crabgrass [10] = assay: post-emergent herbicidal test; settings: T, 4 WAT
Procedure: (§4) The post-emergent tests were conducted as follows:
(§5) The herbicidal active ingredients are applied in spray form to two or three-week old specimens of various plant species. The spray, a solution or wettable powder suspension containing the appropriate rate of herbicidal active ingredient to give the desired test rate and a surfactant, is applied to the plants. The treated plants are placed in a greenhouse and approximately two or four weeks later the effects are observed and recorded. The results are shown in Tables IX and X in which the post-emergent herbicidal rating code is as follows: […]

Hemp Sesbania [11] = assay: post-emergent herbicidal test; settings: R, 4 WAT
Procedure: as §4, §5

Panicum Spp [12] = assay: post-emergent herbicidal test; settings: S, 4 WAT
Procedure: as §4, §5

Rice [13] = assay: post-emergent herbicidal test; settings: O, 4 WAT
Procedure: as §4, §5

Sorghum [14] = assay: post-emergent herbicidal test; settings: P, 4 WAT
Procedure: as §4, §5

Soybean [15] = assay: post-emergent herbicidal test; settings: L, 4 WAT
Procedure: as §4, §5

Sugar Beet [16] = assay: post-emergent herbicidal test; settings: M, 4 WAT
Procedure: as §4, §5

Wheat [17] = assay: post-emergent herbicidal test; settings: N, 4 WAT
Procedure: as §4, §5

Wild Buckwheat [18] = assay: post-emergent herbicidal test; settings: Q, 4 WAT
Procedure: as §4, §5
Note: ranges in brackets are in %.

Row | Structure (SMILES) | pre-emergent herbicidal rating (Crabgrass [1]; 1.12 kg/h, 4 WAT) | pre-emergent herbicidal rating (Crabgrass [1]; 5.6 kg/h, 4 WAT) | pre-emergent herbicidal rating (Hemp Sesbania [2]; 1.12 kg/h, 4 WAT) | pre-emergent herbicidal rating (Hemp Sesbania [2]; 5.6 kg/h, 4 WAT) | pre-emergent herbicidal rating (Panicum Spp [3]; 1.12 kg/h, 4 WAT) | pre-emergent herbicidal rating (Panicum Spp [3]; 5.6 kg/h, 4 WAT) | pre-emergent herbicidal rating (Rice [4]; 1.12 kg/h, 4 WAT) | pre-emergent herbicidal rating (Rice [4]; 5.6 kg/h, 4 WAT) | pre-emergent herbicidal rating (Sorghum [5]; 1.12 kg/h, 4 WAT) | pre-emergent herbicidal rating (Sorghum [5]; 5.6 kg/h, 4 WAT) | pre-emergent herbicidal rating (Soybean [6]; 1.12 kg/h, 4 WAT) | pre-emergent herbicidal rating (Soybean [6]; 5.6 kg/h, 4 WAT) | pre-emergent herbicidal rating (Sugar Beet [7]; 1.12 kg/h, 4 WAT) | pre-emergent herbicidal rating (Sugar Beet [7]; 5.6 kg/h, 4 WAT) | pre-emergent herbicidal rating (Wheat [8]; 1.12 kg/h, 4 WAT) | pre-emergent herbicidal rating (Wheat [8]; 5.6 kg/h, 4 WAT) | pre-emergent herbicidal rating (Wild Buckwheat [9]; 1.12 kg/h, 4 WAT) | pre-emergent herbicidal rating (Wild Buckwheat [9]; 5.6 kg/h, 4 WAT) | also measured
1 | COC(=N)Cn1c(=O)sc2ccccc21 [Compound 11] | 0 (0-24) | 1 (25-49) | 1 (25-49) | 3 (75-100) | 0 (0-24) | 2 (50-74) | 0 (0-24) | 0 (0-24) | 0 (0-24) | 0 (0-24) | 2 (50-74) | 3 (75-100) | 1 (25-49) | 2 (50-74) | 1 (25-49) | 1 (25-49) | 1 (25-49) | 3 (75-100) | post-emergent herbicidal rating (Crabgrass [10]; 1.12 kg/h): 0 (0-24); post-emergent herbicidal rating (Crabgrass [10]; 5.6 kg/h): 0 (0-24); post-emergent herbicidal rating (Hemp Sesbania [11]; 1.12 kg/h): 1 (25-49); post-emergent herbicidal rating (Hemp Sesbania [11]; 5.6 kg/h): 3 (75-99); post-emergent herbicidal rating (Panicum Spp [12]; 1.12 kg/h): 0 (0-24); post-emergent herbicidal rating (Panicum Spp [12]; 5.6 kg/h): 1 (25-49); post-emergent herbicidal rating (Rice [13]; 1.12 kg/h): 0 (0-24); post-emergent herbicidal rating (Rice [13]; 5.6 kg/h): 0 (0-24); post-emergent herbicidal rating (Sorghum [14]; 1.12 kg/h): 0 (0-24); post-emergent herbicidal rating (Sorghum [14]; 5.6 kg/h): 1 (25-49); post-emergent herbicidal rating (Soybean [15]; 1.12 kg/h): 1 (25-49); post-emergent herbicidal rating (Soybean [15]; 5.6 kg/h): 3 (75-99); post-emergent herbicidal rating (Sugar Beet [16]; 1.12 kg/h): 2 (50-74); post-emergent herbicidal rating (Sugar Beet [16]; 5.6 kg/h): 4 (100); post-emergent herbicidal rating (Wheat [17]; 1.12 kg/h): 1 (25-49); post-emergent herbicidal rating (Wheat [17]; 5.6 kg/h): 1 (25-49); post-emergent herbicidal rating (Wild Buckwheat [18]; 1.12 kg/h): 2 (50-74); post-emergent herbicidal rating (Wild Buckwheat [18]; 5.6 kg/h): 4 (100)
2 | CCOC(=N)Cn1c(=O)sc2ccccc21 [Compound 25] | 0 (0-24) | 2 (50-74) | 2 (50-74) | 3 (75-100) | 0 (0-24) | 0 (0-24) | 0 (0-24) | 1 (25-49) | 0 (0-24) | 0 (0-24) | 2 (50-74) | 3 (75-100) | 1 (25-49) | 3 (75-100) | 0 (0-24) | 1 (25-49) | 1 (25-49) | 2 (50-74) | pre-emergent herbicidal rating (Crabgrass [1]; 0.056 kg/h, 2 WAT): 0 (0-24); pre-emergent herbicidal rating (Crabgrass [1]; 0.28 kg/h, 2 WAT): 0 (0-24); pre-emergent herbicidal rating (Hemp Sesbania [2]; 0.056 kg/h, 2 WAT): 0 (0-24); pre-emergent herbicidal rating (Hemp Sesbania [2]; 0.28 kg/h, 2 WAT): 0 (0-24); pre-emergent herbicidal rating (Panicum Spp [3]; 0.056 kg/h, 2 WAT): 0 (0-24); pre-emergent herbicidal rating (Panicum Spp [3]; 0.28 kg/h, 2 WAT): 0 (0-24); pre-emergent herbicidal rating (Rice [4]; 0.056 kg/h, 2 WAT): 0 (0-24); pre-emergent herbicidal rating (Rice [4]; 0.28 kg/h, 2 WAT): 0 (0-24); pre-emergent herbicidal rating (Sorghum [5]; 0.056 kg/h, 2 WAT): 0 (0-24); pre-emergent herbicidal rating (Sorghum [5]; 0.28 kg/h, 2 WAT): 0 (0-24); pre-emergent herbicidal rating (Soybean [6]; 0.056 kg/h, 2 WAT): 0 (0-24); pre-emergent herbicidal rating (Soybean [6]; 0.28 kg/h, 2 WAT): 1 (25-49); pre-emergent herbicidal rating (Sugar Beet [7]; 0.056 kg/h, 2 WAT): 0 (0-24); pre-emergent herbicidal rating (Sugar Beet [7]; 0.28 kg/h, 2 WAT): 1 (25-49); pre-emergent herbicidal rating (Wheat [8]; 0.056 kg/h, 2 WAT): 0 (0-24); pre-emergent herbicidal rating (Wheat [8]; 0.28 kg/h, 2 WAT): 0 (0-24); pre-emergent herbicidal rating (Wild Buckwheat [9]; 0.056 kg/h, 2 WAT): 0 (0-24); pre-emergent herbicidal rating (Wild Buckwheat [9]; 0.28 kg/h, 2 WAT): 0 (0-24)
